Measurements reported in patent US20250009714A1, “SELECTION AND TREATMENT OF SUBJECTS HAVING A CIRCULATING MYELOID CELL INFLAMMATORY PHENOTYPE” (Tranquis Therapeutics, Inc., priority 2021, published 2025).

What was measured:
[1] = Plasma levels of TQS-168 after a single oral dose in wild-type mice; format: in vivo, mouse; conditions: single 50 mg/kg dose
Method: FIG. 2A plots plasma concentration of TQS-168 over time after a single oral dose of […] TQS-168 in mice. FIG. 2B is a timeline representative of the protocol of the SOD1 mouse study. Plasma levels of TQS-168 in wild-type mice were analyzed subsequently to a single 50 mg/kg dose of TQS-168.

[2] = tested on: Ppargc1α (PGC-1α) expression; conditions: direct molecular binding partner unknown; cited from earlier work
[3] = tested on: plasma cytokines (IL-6, IL-10, TNFα, interferon gamma, CXCL5, etc.); assay: Plasma cytokines in SOD1 mice (48-plex Procarta panel); format: in vivo, mouse; conditions: 50 mg/kg oral gavage every 3 days from Day 70 until day of euthanasia
Method: (§1) 60-day old transgenic mice overexpressing the human SOD1-G93A ALS-causing mutation (stock #002726) and wild-type mice (WT; C57BL/6J) were obtained from the Jackson Labs. Oral dosing by gavage started at 70 days of age. SOD1 mice received either TQS-168 50 mg/kg every 3 days or vehicle (same volume and frequency). The staff that dosed and assessed the mice were blinded to treatment allocation. Blood samples were collected in EDTA tubes at 2 time points: 90 days of age and time of euthanasia. Blood samples were processed for flow cytometry and plasma cytokine analysis. Flow cytometry methods employed are the same as those employed in Example 1 and Example 2.
Blood samples were collected from SOD1 mice at Day 90 and time of euthanasia. Plasma samples were assayed using the 48-plex Procarta panel (Thermo Fisher).

[4] = tested on: Ly6C^hi inflammatory monocytes in SOD1-G93A mice; assay: Fraction of inflammatory monocytes in SOD1 mice (flow cytometry of blood); format: in vivo, mouse; conditions: 50 mg/kg oral gavage every 3 days from Day 70 until Day 90
Source text: as §1, with “The SOD1-G93A transgenic mouse has proven to be a useful tool in the study of ALS. A large majority of […] in the Superoxide dismutase 1 gene. SOD1-G93A mice express human SOD1 with the G93A mutation under control of the human SOD1 promoter. The mice show a phenotype similar to Amyotrophic Lateral Sclerosis in humans. 60-day” for “60-day”

[5] = tested on: Ly6C^hi inflammatory monocytes; assay: Ex vivo LPS stimulation of wild-type mouse whole blood, FACS of Ly6C^hi cells; format: cell-based; conditions: LPS stimulated, increasing concentrations of TQS-168, 5 hours at 37° C.
Method: Lipopolysaccharide (LPS) was used to induce circulating myeloid cells from wild type mice to adopt an inflammatory phenotype in vitro. […] As schematized in FIG. 1C, blood samples from wild-type mice were collected in EDTA tubes and stimulated with LPS. Whole blood was incubated at 37° C. with increasing concentrations of TQS-168 for 5 hours. Whole blood was lysed with lysis buffer from BD Bioscience for 10 minutes at 37C. Lysed blood was centrifuged at 500 g for 10 minutes. The supernatant was decanted, and cell pellet washed with Hank's balanced salt solution (HBSS). The cells were then centrifuged at 300 g for 10 minutes. They were subsequently resuspended in 2 mM EDTA FACS buffer. Fixed cells (100 μL) were washed with PBS. The cells (100 μL) were resuspended in PBS containing Zombie Aqua solution (Biolegend) at a 1:500 dilution. The cells were incubated in the dark at room temperature for 5 minutes. The cells were then washed with FACS buffer. The cells were stained with Cd11b, Ly6G, and Ly6C antibodies (BD Bioscience). The cells were then incubated with antibodies for 30 minutes. They were then washed with FACS buffer and then resuspended also in FACS buffer. Finally, the cells were acquired on flow cytometer.

CD14+CD16+ monocytes = assay: Four-hour ex vivo incubation of whole blood of ALS patients, FACS of CD14+CD16+ monocytes; format: cell-based, human; conditions: 4-hour ex vivo incubation
Method: Whole blood samples from patients with ALS were shipped at room temperature. The percentage of CD14+CD16+ monocytes were determined by fluorescence activated cell sorting (FACS). Briefly, whole blood was lysed with lysis buffer (BD Bioscience) for 10 minutes at 37° C. Lysed blood was centrifuged at 500 g for 10 min. Supernatant was decanted and the cell pellet washed with HBSS (Hank's balanced salt solution). Cells were centrifuged at 300 g for 10 min. Cells were resuspended in FACS buffer (PBS+2% FBS[…]). Fixed cells (100 μL) were washed with PBS. Cells (100 μL) were resuspended in PBS containing Zombie Aqua (Biolegend; 1:500 dilution). Cells were incubated in the dark at room temperature for 5 minutes. Cells were washed with FACS buffer. Cells were stained with 5 μL CD16 and 5 μL CD14 antibodies (BD Bioscience). Cells were incubated with antibodies for 30 minutes. Cells were washed with FACS buffer. Cells were resuspended in FACS buffer. Cells were acquired on a flow cytometer. FIG. 5B outlines the experimental protocol for assessing the effects of ex vivo incubation with TQS-168 on the inflammatory phenotype of circulating myeloid cells in peripheral blood samples of ALS patients. Samples were obtained from iSpecimen (Lexington, MA) and BioIVT (Westbury, NY). Blood samples were processed within 36 hours of collection and were never frozen. […]

SOD1-G93A mice [6] = assay: Survival in SOD1 mice (time from birth to euthanasia, righting reflex); format: in vivo, mouse
Method: 60-day old transgenic mice overexpressing the human SOD1-G93A ALS-causing mutation (stock #002726) were obtained from the Jackson Labs. Dosing started at 70 days of age. SOD1 mice received either TQS-168 50 mg/kg every 3 days or vehicle (same volume and frequency) by oral gavage. The righting reflex (ability to turn over when place on their backs) was assessed every 3 days when mice were <110 days old and every day after age 110 days. Mice were euthanized if they could not right themselves in 20 seconds after being placed onto their back. Time from birth to euthanasia was calculated for each mouse and compared in the two groups.

SOD1-G93A mice [7] = conditions: SOD1 mouse model; cited from earlier work

Row | Compound | oral bioavailability (plasma levels) [1] | effect on Ppargc1α (PGC-1α) expression [2] | increase in plasma cytokines from Day 90 to day of euthanasia [3] | increase in circulating Ly6C^hi monocytes in SOD1 mice [4] | LPS-induced increase in percentage of Ly6C^hi inflammatory monocytes [5] | percentage of CD14+CD16+ monocytes after incubation (CD14+CD16+ monocytes; 30 μM, from 1.5% without compound) | change in percentage of intermediate (CD14+CD16+) monocytes with increasing concentrations (CD14+CD16+ monocytes) | survival compared with vehicle (SOD1-G93A mice [6]; 50 mg/kg oral gavage every 3 days) | median survival (SOD1-G93A mice [6]; 50 mg/kg oral gavage every 3 days from 70 days of age) | difference in median survival versus vehicle (SOD1-G93A mice [6]; 50 mg/kg oral gavage every 3 days, vehicle 129) | survival benefit in the SOD1 model (approved ALS treatments) (SOD1-G93A mice [7])
1 | CC(C)(C)c1ccc(-c2nc3ccccc3[nH]2)cc1 [TQS-168, 2-(4-tert-butylphenyl)-1H-benzimidazole] | orally bioavailable | activator of Ppargc1α (PGC-1α) expression | inhibited this increase in plasma cytokines | inhibited the increase in circulating Ly6C^hi monocytes | inhibits the LPS-induced increase in Ly6C^hi monocytes | less than 1% | dose-dependent decrease | survived longer | 135 days | 6 days | –
2 | CC1=NN(c2ccccc2)C(=O)C1 [edaravone] | – | – | – | – | – | – | – | – | – | – | failed to display survival benefits
